Measured values published in ChEMBL document CHEMBL1201862, “PubChem BioAssay data set” (2004).
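Exposure lasted 48 hours, with cells grown in 96-well plates and compounds tested at five concentrations. GI50 = concentration required for 50% inhibition of growth.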 Active and inactive are the calls of the source. No stated cut-off is given here; in the data, active = GI50 up to about 1.1 µM and inactive = higher.

Legend:
Assay in all cases: growth of human tumour cells (NCI), 48 h
A498 = test system: A498
A549 = test system: A549
ACHN = test system: ACHN
CCRF-CEM = test system: CCRF-CEM
DLD-1 = test system: DLD-1
DMS-114 = test system: DMS-114
DMS-273 = test system: DMS-273
HCC 2998 = test system: HCC 2998
HCT-116 = test system: HCT-116
HCT-15 = test system: HCT-15
HL-60 = test system: HL-60
HOP-18 = test system: HOP-18
HT-29 = test system: HT-29
IGROV-1 = test system: IGROV-1
K562 = test system: K562
KM12 = test system: KM12
LOX IMVI = test system: LOX IMVI
LXFL 529 = test system: LXFL 529
M14 = test system: M14
M19-MEL = test system: M19-MEL
MOLT-4 = test system: MOLT-4
Malme-3M = test system: Malme-3M
NCI-H226 = test system: NCI-H226
NCI-H23 = test system: NCI-H23
NCI-H460 = test system: NCI-H460
NCI-H522 = test system: NCI-H522
OVCAR-3 = test system: OVCAR-3
OVCAR-4 = test system: OVCAR-4
OVCAR-8 = test system: OVCAR-8
RXF 393 = test system: RXF 393
SF-268 = test system: SF-268
SF-295 = test system: SF-295
SF-539 = test system: SF-539
SK-MEL-28 = test system: SK-MEL-28
SK-MEL-2 = test system: SK-MEL-2
SK-MEL-5 = test system: SK-MEL-5
SK-OV-3 = test system: SK-OV-3
SN12C = test system: SN12C
SNB-19 = test system: SNB-19
SNB-75 = test system: SNB-75
SNB-78 = test system: SNB-78
TK-10 = test system: TK-10
U-251 = test system: U-251
UACC-257 = test system: UACC-257
UACC-62 = test system: UACC-62
UO-31 = test system: UO-31
XF498 = test system: XF498
786-0 = test system: 786-0
CAKI-1 = test system: CAKI-1
COLO 205 = test system: COLO 205
EKVX = test system: EKVX
HOP-62 = test system: HOP-62
HOP-92 = test system: HOP-92
KM-20L2 = test system: KM-20L2
OVCAR-5 = test system: OVCAR-5
RPMI-8226 = test system: RPMI-8226
SR = test system: SR
SW-620 = test system: SW-620

O=C(NN1C(=O)C(Cl)C1c1cccc(O)c1)c1ccccc1O (stereo unspecified)
GI50 (A498): > 100 µM (inactive) | GI50 (A549): > 100 µM (inactive) | GI50 (ACHN): > 100 µM (inactive) | GI50 (CCRF-CEM): > 100 µM (inactive) | GI50 (DLD-1): > 100 µM (inactive) | GI50 (DMS-114): > 100 µM (inactive) | GI50 (DMS-273): > 100 µM (inactive) | GI50 (HCC 2998): > 100 µM (inactive) | GI50 (HCT-116): > 100 µM (inactive) | GI50 (HCT-15): > 100 µM | GI50 (HL-60): > 100 µM (inactive) | GI50 (HOP-18): 24.8 µM (inactive) | GI50 (HT-29): > 100 µM (inactive) | GI50 (IGROV-1): > 100 µM (inactive) | GI50 (K562): > 100 µM (inactive) | GI50 (KM12): > 100 µM (inactive) | GI50 (LOX IMVI): > 100 µM (inactive) | GI50 (LXFL 529): > 100 µM (inactive) | GI50 (M14): > 100 µM (inactive) | GI50 (M19-MEL): > 100 µM (inactive) | GI50 (MOLT-4): > 100 µM (inactive) | GI50 (Malme-3M): > 100 µM (inactive) | GI50 (NCI-H226): > 100 µM (inactive) | GI50 (NCI-H23): > 100 µM (inactive) | GI50 (NCI-H460): > 100 µM (inactive) | GI50 (NCI-H522): > 100 µM (inactive) | GI50 (OVCAR-3): > 100 µM (inactive) | GI50 (OVCAR-4): > 100 µM (inactive) | GI50 (OVCAR-8): > 100 µM (inactive) | GI50 (RXF 393): > 100 µM (inactive) | GI50 (SF-268): > 100 µM (inactive) | GI50 (SF-295): > 100 µM (inactive) | GI50 (SF-539): > 100 µM (inactive) | GI50 (SK-MEL-28): > 100 µM (inactive) | GI50 (SK-MEL-2): > 100 µM (inactive) | GI50 (SK-MEL-5): > 100 µM (inactive) | GI50 (SK-OV-3): > 100 µM (inactive) | GI50 (SN12C): > 100 µM (inactive) | GI50 (SNB-19): > 100 µM (inactive) | GI50 (SNB-75): > 100 µM (inactive) | GI50 (SNB-78): > 100 µM (inactive) | GI50 (TK-10): > 100 µM (inactive) | GI50 (U-251): > 100 µM (inactive) | GI50 (UACC-257): > 100 µM (inactive) | GI50 (UACC-62): > 100 µM (inactive) | GI50 (UO-31): > 100 µM (inactive) | GI50 (XF498): > 100 µM (inactive)

CNC(=O)CN(CC(=O)NC)C(=O)NC
GI50 (786-0): > 100 µM (inactive) | GI50 (A498): > 100 µM (inactive) | GI50 (A549): > 100 µM (inactive) | GI50 (ACHN): > 100 µM (inactive) | GI50 (CAKI-1): > 100 µM (inactive) | GI50 (CCRF-CEM): > 100 µM (inactive) | GI50 (COLO 205): > 100 µM (inactive) | GI50 (DLD-1): > 100 µM (inactive) | GI50 (DMS-273): > 100 µM (inactive) | GI50 (EKVX): > 100 µM (inactive) | GI50 (HCC 2998): > 100 µM (inactive) | GI50 (HCT-15): > 100 µM | GI50 (HL-60): > 100 µM (inactive) | GI50 (HOP-62): > 100 µM (inactive) | GI50 (HOP-92): > 100 µM (inactive) | GI50 (HT-29): > 100 µM (inactive) | GI50 (IGROV-1): > 100 µM (inactive) | GI50 (K562): > 100 µM (inactive) | GI50 (KM-20L2): > 100 µM (inactive) | GI50 (KM12): > 100 µM (inactive) | GI50 (LOX IMVI): > 100 µM (inactive) | GI50 (LXFL 529): > 100 µM (inactive) | GI50 (M14): > 100 µM (inactive) | GI50 (M19-MEL): > 100 µM (inactive) | GI50 (MOLT-4): > 100 µM (inactive) | GI50 (Malme-3M): > 100 µM (inactive) | GI50 (NCI-H226): > 100 µM (inactive) | GI50 (NCI-H23): > 100 µM (inactive) | GI50 (NCI-H522): > 100 µM (inactive) | GI50 (OVCAR-3): > 100 µM (inactive) | GI50 (OVCAR-4): > 100 µM (inactive) | GI50 (OVCAR-5): > 100 µM (inactive) | GI50 (OVCAR-8): > 100 µM (inactive) | GI50 (RPMI-8226): > 100 µM (inactive) | GI50 (RXF 393): > 100 µM (inactive) | GI50 (SF-268): > 100 µM (inactive) | GI50 (SF-295): > 100 µM (inactive) | GI50 (SF-539): > 100 µM (inactive) | GI50 (SK-MEL-28): > 100 µM (inactive) | GI50 (SK-MEL-2): > 100 µM (inactive) | GI50 (SK-MEL-5): > 100 µM (inactive) | GI50 (SK-OV-3): > 100 µM (inactive) | GI50 (SNB-19): > 100 µM (inactive) | GI50 (SNB-75): > 100 µM (inactive) | GI50 (SNB-78): > 100 µM (inactive) | GI50 (SR): > 100 µM (inactive) | GI50 (SW-620): > 100 µM (inactive) | GI50 (TK-10): > 100 µM (inactive) | GI50 (U-251): > 100 µM (inactive) | GI50 (UACC-257): > 100 µM (inactive) | GI50 (UACC-62): > 100 µM (inactive) | GI50 (UO-31): > 100 µM (inactive) | GI50 (XF498): > 100 µM (inactive)

CC(C)OP(=O)(NC(=S)c1ccccc1)OC(C)C
GI50 (786-0): > 100 µM (inactive) | GI50 (A498): 43 µM (inactive) | GI50 (A549): 92 µM (inactive) | GI50 (ACHN): > 100 µM (inactive) | GI50 (CAKI-1): > 100 µM (inactive) | GI50 (CCRF-CEM): 74.5 µM (inactive) | GI50 (COLO 205): > 100 µM (inactive) | GI50 (DLD-1): > 100 µM (inactive) | GI50 (DMS-114): 70.8 µM (inactive) | GI50 (DMS-273): > 100 µM (inactive) | GI50 (EKVX): > 100 µM (inactive) | GI50 (HCC 2998): > 100 µM (inactive) | GI50 (HCT-116): > 100 µM (inactive) | GI50 (HCT-15): > 100 µM | GI50 (HOP-92): > 100 µM (inactive) | GI50 (HT-29): 43.5 µM (inactive) | GI50 (IGROV-1): > 100 µM (inactive) | GI50 (K562): > 100 µM (inactive) | GI50 (KM-20L2): > 100 µM (inactive) | GI50 (KM12): > 100 µM (inactive) | GI50 (LOX IMVI): > 100 µM (inactive) | GI50 (LXFL 529): 57.7 µM (inactive) | GI50 (M14): > 100 µM (inactive) | GI50 (M19-MEL): > 100 µM (inactive) | GI50 (MOLT-4): 80.7 µM (inactive) | GI50 (Malme-3M): > 100 µM (inactive) | GI50 (NCI-H226): > 100 µM (inactive) | GI50 (NCI-H23): > 100 µM (inactive) | GI50 (NCI-H460): 23.4 µM (inactive) | GI50 (OVCAR-3): > 100 µM (inactive) | GI50 (OVCAR-4): > 100 µM (inactive) | GI50 (OVCAR-5): > 100 µM (inactive) | GI50 (OVCAR-8): > 100 µM (inactive) | GI50 (SF-268): > 100 µM (inactive) | GI50 (SF-295): > 100 µM (inactive) | GI50 (SF-539): > 100 µM (inactive) | GI50 (SK-MEL-28): > 100 µM (inactive) | GI50 (SK-MEL-2): > 100 µM (inactive) | GI50 (SK-MEL-5): 34.5 µM (inactive) | GI50 (SK-OV-3): > 100 µM (inactive) | GI50 (SN12C): 95.1 µM (inactive) | GI50 (SNB-19): > 100 µM (inactive) | GI50 (SNB-75): > 100 µM (inactive) | GI50 (SNB-78): > 100 µM (inactive) | GI50 (SW-620): > 100 µM (inactive) | GI50 (TK-10): > 100 µM (inactive) | GI50 (U-251): > 100 µM (inactive) | GI50 (UACC-257): > 100 µM (inactive) | GI50 (UACC-62): 71.1 µM (inactive) | GI50 (UO-31): > 100 µM (inactive) | GI50 (XF498): > 100 µM (inactive)
